Data from ChEMBL document CHEMBL4699433, “Rational design, synthesis and testing of novel tricyclic topoisomerase inhibitors for the treatment of bacterial infections part 2” (RSC Med Chem, 2020).
Converted amounts (≈) assume the structure as drawn.

What was measured:
Staphylococcus aureus = test: Antibacterial activity against wild type methicillin-sensitive Staphylococcus aureus ATCC 29213 assessed as reduction in bacterial growth by CLSI based broth microdilution method; format: functional
Streptococcus pneumoniae = test: Antibacterial activity against Streptococcus pneumoniae ATCC 49619 assessed as reduction in bacterial growth by CLSI based broth microdilution method; format: functional
Escherichia coli = test: Antibacterial activity against Escherichia coli ATCC 25922 assessed as reduction in bacterial growth by CLSI based broth microdilution method; format: functional
Haemophilus influenzae = test: Antibacterial activity against Haemophilus influenzae ATCC 49247 assessed as reduction in bacterial growth by CLSI based broth microdilution method; format: functional
[1] = Thermodynamic solubility of the compound; format: physicochemical; conditions: read-out: Therm_solubility

| MIC (Staphylococcus aureus) [µg/mL] | MIC (Streptococcus pneumoniae) [µg/mL] | MIC (Escherichia coli) [µg/mL] | MIC (Haemophilus influenzae) [µg/mL] | solubility thermodynamic [1] [µg/mL] | Compound |
| --- | --- | --- | --- | --- | --- |
| 2 (≈ 4.8 µM) | 4 (≈ 9.59 µM) | 2 (≈ 4.8 µM) | 8 (≈ 19.2 µM) | 1060 (≈ 2550 µM) | Cc1nc2c(=O)n(C3CC3)c3c(Cl)c(N4CC5CCCNC5C4)c(F)cc3c2o1 (stereo not drawn) |
| 32 (≈ 93.2 µM) | 64 (≈ 186 µM) | 64 (≈ 186 µM) | 4 (≈ 11.6 µM) | – | Cc1nc2c(=O)n(C3CC3)c3cc(N4CCC(O)C4)c(F)cc3c2o1 (stereo not drawn) |
| 2 (≈ 5.43 µM) | 4 (≈ 10.9 µM) | 4 (≈ 10.9 µM) | 2 (≈ 5.43 µM) | 1200 (≈ 3240 µM) | Cc1nc2c(=O)n(C3CC3)c3cc(N4CC5CNCC5C4)c(F)cc3c2o1 (stereo not drawn) |
| 2 (≈ 5.84 µM) | 8 (≈ 23.4 µM) | 1 (≈ 2.92 µM) | 1 (≈ 2.92 µM) | – | Cc1nc2c(=O)n(C3CC3)c3cc(N4CCC(N)C4)c(F)cc3c2o1 (stereo not drawn) |
| 1 (≈ 2.39 µM) | 2 (≈ 4.77 µM) | 4 (≈ 9.55 µM) | 16 (≈ 38.2 µM) | 1190 (≈ 2850 µM) | Cc1nc2c(=O)n(C3CC3)c3c(Cl)c(N4CCC(CN(C)C)C4)c(F)cc3c2o1 (stereo not drawn) |
